{"source": "patent US10398747B2", "about": "“Composition comprising the extract of herbal combination for preventing or treating diabetic peripheral neuropathy” (DONG-A ST CO., LTD., priority 2011, dated 2019)", "key": {"[1]": {"system": "nerve growth factor (NGF)", "test": "NGF level in sciatic nerve and salivary gland of ICR male mice with streptozotocin-induced type 1 diabetes (ELISA)", "format": "in vivo, mouse", "settings": "streptozotocin-diabetic ICR male mice", "protocol": "(§1) ICR male mice, each weighing 25^˜30 g, were acclimated for one week at 22-24° C. at a relative humidity of 60-80%, with a standard diet and water fed thereto. Thereafter, a solution of streptozotocin in saline was intravenously administered once at a dose of 200 mg/kg to the mice to induce type 1 diabetes. Four weeks after the induction of diabetes, rats were divided into groups according to blood sugar level. The extracts prepared in the above Examples were orally administered once a day for 14 weeks at predetermined doses to the mice, while α-lipoic acid and Gabapentin were used as positive controls at a dose of 50 mg/kg and 100 mg/kg, respectively. Mice in each group were placed on a 58° C. hot plate, and examined for hyperalgesia to heat stimulus by measuring the latent time it took for the mice to feel a heat pain on their foot soles and jump.\nThen, the mice were sacrificed to obtain the sciatic nerve and the salivary glands therefrom. The sciatic nerve and the salivary glands were processed in the same manner as in Test Example 1 and measured for NGF level by ELISA."}, "[2]": {"system": "db/db male mice with type 2 diabetes", "test": "58° C. hot plate test, db/db male mice with type 2 diabetes", "format": "in vivo, mouse", "protocol": "(§2) db/db Male mice, each weighing 40^˜45 g, were acclimated for one week at 22-24° C. at a relative humidity of 60-80%, with a standard diet and water fed thereto. On the day of the 9th week after birth, the mice in which diabetes had been induced were selected. Four weeks later, mice suffering from type 2 diabetes were separated according to blood sugar level. The extracts prepared in the above Examples were orally administered once a day for 12 weeks at predetermined doses to the mice, while α-lipoic acid and gabapentin were used as positive controls at a dose of 50 mg/kg and 100 mg/kg, respectively. Mice in each group were placed on a 58° C. hot plate, and examined for hyperalgesia to heat stimulus by measuring the latent time it took for the mice to feel a heat pain on their foot soles and jump."}, "[3]": {"system": "nerve growth factor (NGF)", "test": "Test for in vivo level of nerve growth factor in normal mouse model (ELISA)", "settings": "normal male ICR mice", "protocol": "Ability of the crude extract with 50% ethanol in Example 1 to induce the secretion of nerve growth factor in vivo was evaluates (O. Arrieta and J. Sotelo et al., Retinoic acid increased tissue and plasma contents of nerve growth factor and prevents neuropathy in diabetic mice. European Journal of Clinical Investigation (2005) 35).\nMale ICR mice, each weighing 25-30 g, were acclimated for 1 week at 22-24° C. at a relative humidity of 60-80% while being fed with water and a standard diet. They were divided into groups according to weight. The extracts prepared in the above Examples were orally administered in predetermined amounts to the mice, with Gabapentin used as a positive control at a doe of 100 mg/kg. 16 hours after which blood was sampled from the mice. They were then sacrificed to obtain the sciatic nerve and the salivary glands.\nAfter the blood samples were centrifuged at 10,000 rpm for 10 min, the levels of nerve growth factor in the plasma thus separated were measured by ELISA (ABS 440 nm). The sciatic nerve and the salivary glands were weighed and a solution containing 100 mM Tris-HCl, 1M NaCl, 2% BSA, 4 mM EDTA, 2.0% Trtion®X-100, 0.02% sodium azide, 0.1 mg/ml pepstatin A, 5 mg/ml aprotonin, 0.5 mg/ml antipain, 167 mg/ml benzamidine, and 5.2 mg/ml PMSF was added in amounts proportional to the weights, followed by homogenization. The homogenates were incubated for 15 min with 1N HCl in an amount of 1 μl/50 μl for oxidization and neutralized with 1N NaOH in an amount of 1 μl/50 μl. Centrifugation was performed at 10,000 rpm for 10 min to obtain supernatants. Like plasma, the sciatic nerve and the salivary glands were quantitatively analyzed for the level of nerve growth factor."}, "[4]": {"system": "nerve growth factor (NGF)", "test": "NGF level in sciatic nerve of db/db male mice with type 2 diabetes (ELISA)", "format": "in vivo, mouse", "protocol": "as §2\nThen, the mice were sacrificed to obtain the sciatic nerve therefrom. The sciatic nerve was processed in the same manner as in Test Example 1 and its NGF level was measured by ELISA."}, "[5]": {"system": "SD male rats with streptozotocin-induced type 1 diabetes", "test": "Randall-Sellito test, threshold response to pressure on a paw, streptozotocin-diabetic SD rats", "format": "in vivo, rat", "protocol": "(§3) The ability of the extracts to alleviate the pain caused by diabetic neuropathy was examined. In this regard, rats with streptozotocin-induced diabetes were separated and orally administered with the extracts at a predetermined dose once a day for 14 weeks, with α-lipoic acid 50 mg/kg and Gabapentin 100 mg/kg serving as positive controls. A Randall-Sellito test was performed to measure a threshold response to pressure on a paw. The latent time taken to respond to a thermal pain was measured using a tail-flick test. In order to evaluate the neurodegeneration which had progressed with the onset of diabetic neuropathy, the sciatic nerve taken from the rats of each group was fixed with formalin and observed under an electron microscope to measure the size and thickness of the myelin sheath, and the results are summarized in Table 9.\n(§4) An increase in threshold to mechanical stimuli delineates an increase in threshold to pain. In the tail flick test, an increase in latent time to pain response corresponds to an increase in threshold to thermal stimuli, indicating the alleviation of pain."}, "[6]": {"system": "SD male rats with streptozotocin-induced type 1 diabetes", "test": "Tail-flick test, latent time to thermal pain, streptozotocin-diabetic SD rats", "format": "in vivo, rat", "protocol": "as §3, §4"}, "[7]": {"system": "SD male rats with streptozotocin-induced type 1 diabetes", "test": "Neurodegeneration: size and thickness of myelin sheath of sciatic nerve by electron microscope, streptozotocin-diabetic SD rats", "format": "in vivo, rat", "protocol": "as §3"}, "[8]": {"system": "ICR male mice with streptozotocin-induced type 1 diabetes", "test": "58° C. hot plate test, ICR male mice with streptozotocin-induced type 1 diabetes", "format": "in vivo, mouse", "settings": "streptozotocin-diabetic ICR male mice", "protocol": "as §1"}, "[9]": {"system": "nerve growth factor (NGF)", "test": "NGF level in sciatic nerve and salivary gland of SD male rats with streptozotocin-induced type 1 diabetes (ELISA)", "format": "in vivo, rat", "settings": "streptozotocin-diabetic SD male rats", "protocol": "SD male rats, each weighing 220^˜250 g, were acclimated for one week at 22-24° C. at a relative humidity of 60-80% with standard diet and water fed thereto. Thereafter, a solution of streptozotocin in saline was intravenously administered once at a dose of 50 mg/kg to the rats to induce type 1 diabetes. Four weeks after the induction of diabetes, rats were divided into groups according to blood sugar level. The extracts prepared in the above Examples were orally administered once a day for 8 weeks at predetermined doses to the rats, while α-lipoic acid and Gabapentin were used as positive controls at does of 50 mg/kg and 100 mg/kg, respectively. Then, they were sacrificed to obtain the sciatic nerve and the salivary glands. The sciatic nerve and the salivary glands were processed in the same manner as in Test Example 1 and measured for NGF level by ELISA."}, "PC12 nerve cells": {"system": "PC12 nerve cells", "test": "Growth of PC12 nerve cells (MTS assay)", "format": "cell-based, rat", "settings": "48 hours", "protocol": "For use in a test for ability to induce nerve cell growth, PC12 nerve cells were seeded at the same density per well into plates and incubated for 24 hours."}, "TrkA (NGF receptor)": {"system": "TrkA (NGF receptor)", "test": "Phosphorylation of NGF receptor in PC12 nerve cells (Western blotting)", "format": "cell-based, rat", "settings": "48 hours", "protocol": "For use in this test, PC12 nerve cells were seeded at the same density per well into plates and incubated for 24 hours. The cells were washed with PBS and cultured for 48 hours in culture media supplemented with the herb extracts of Example 1 or Comparative Examples 1 to 10 or NGF. Thereafter, phosphorylated TrkA (NGF receptor) were detected using Western blotting, and quantitatively analyzed on the basis of the thickness of the detected bands.\nNGF signaling starts with the binding of NGF to its receptor (Trk-A), which results in the phosphorylation of the receptor. Thus, an increased level of phosphorylated NGF receptors means the amplification of the NGF signaling pathway."}, "[10]": {"system": "DRG (Dorsal root ganglion) nerve cells", "test": "Growth of neurites in rat-derived DRG nerve cells (neurite area under microscope)", "format": "cell-based", "settings": "rat embryo DRG cells, 48 hours", "protocol": "For use in this test, DRG nerve cells were seeded at the same density into plates and incubated for 24 hours. Thereafter, the cells were washed with PBS and cultured for 48 hours in a culture medium in the absence or presence of a combination of the extract of Example 1 or Comparative Examples 1 to 10, and NGF. The nerve cells in each group were observed under a microscope to measure the area of the neurites grown therein."}, "[11]": {"settings": "oral 100 mg/kg once a day for 14 weeks"}, "[12]": {"settings": "oral 100 mg/kg once a day for 12 weeks"}, "[13]": {"settings": "oral 100 mg/kg, 16 hours after dosing"}, "[14]": {"settings": "oral 100 mg/kg once a day for 8 weeks"}, "[15]": {"settings": "50 mg/kg once a day for 14 weeks"}, "[16]": {"settings": "50 mg/kg once a day for 12 weeks"}, "[17]": {"settings": "50 mg/kg once a day for 8 weeks"}}}
{"compound": "NCC1(CC(=O)O)CCCCC1", "note": "[Gabapentin]", "values": [{"measurement": "NGF Level Salivary Gland", "setting": "[1]; [11]", "result": 117.1, "unit": "ng/mg"}, {"measurement": "NGF Level Sciatic Nerve", "setting": "[1]; [11]", "result": 5.5, "unit": "pg/mg"}, {"measurement": "Latent Time to Pain Response on 58° C. Hot Plate", "setting": "[2]; [12]", "result": 16.1, "unit": "s"}, {"measurement": "NGF Level in Plasma", "setting": "[3]; [13]", "result": 610.4, "unit": "pg/mL"}, {"measurement": "NGF Level in Salivary Gland", "setting": "[3]; [13]", "result": 193.1, "unit": "ng/mg"}, {"measurement": "NGF Level in Sciatic Nerve", "setting": "[3]; [13]", "result": 4.2, "unit": "pg/mg"}, {"measurement": "NGF Level in Sciatic Nerve", "setting": "[4]; [12]", "result": 7.2, "unit": "pg/mg"}, {"measurement": "Pressure Pain Threshold", "setting": "[5]; [11]", "result": 137.7, "unit": "g"}, {"measurement": "Latent Time to Pain Reaction", "setting": "[6]; [11]", "result": 7.7, "unit": "s"}, {"measurement": "Size of Myelin sheath", "setting": "[7]; 100 mg/kg", "result": 10.4, "unit": "μm"}, {"measurement": "Thickness of Myelin sheath", "setting": "[7]; 100 mg/kg", "result": 2.2, "unit": "μm"}, {"measurement": "Latent Time to Pain Response on 58° C. Hot Plate", "setting": "[8]; [11]", "result": 33.0, "unit": "s"}, {"measurement": "NGF Level Salivary Gland", "setting": "[9]; [14]", "result": 2.4, "unit": "ng/mg"}, {"measurement": "NGF Level Sciatic Nerve", "setting": "[9]; [14]", "result": 14.9, "unit": "pg/mg"}]}
{"compound": "O=C(O)CCCCC1CCSS1", "note": "(stereo not drawn) [α-Lipoic acid]", "values": [{"measurement": "NGF Level Salivary Gland", "setting": "[1]; [15]", "result": 118.7, "unit": "ng/mg"}, {"measurement": "NGF Level Sciatic Nerve", "setting": "[1]; [15]", "result": 5.7, "unit": "pg/mg"}, {"measurement": "Latent Time to Pain Response on 58° C. Hot Plate", "setting": "[2]; [16]", "result": 15.4, "unit": "s"}, {"measurement": "NGF Level in Salivary Gland", "setting": "[3]; 50 mg/kg", "result": 164.4, "unit": "ng/mg"}, {"measurement": "NGF Level in Sciatic Nerve", "setting": "[3]; 50 mg/kg", "result": 5.0, "unit": "pg/mg"}, {"measurement": "NGF Level in Sciatic Nerve", "setting": "[4]; [16]", "result": 7.6, "unit": "pg/mg"}, {"measurement": "Pressure Pain Threshold", "setting": "[5]; [15]", "result": 150.0, "unit": "g"}, {"measurement": "Latent Time to Pain Reaction", "setting": "[6]; [15]", "result": 7.4, "unit": "s"}, {"measurement": "Size of Myelin sheath", "setting": "[7]; 50 mg/kg", "result": 11.2, "unit": "μm"}, {"measurement": "Thickness of Myelin sheath", "setting": "[7]; 50 mg/kg", "result": 2.6, "unit": "μm"}, {"measurement": "Latent Time to Pain Response on 58° C. Hot Plate", "setting": "[8]; [15]", "result": 31.1, "unit": "s"}, {"measurement": "NGF Level Salivary Gland", "setting": "[9]; [17]", "result": 2.8, "unit": "ng/mg"}, {"measurement": "NGF Level Sciatic Nerve", "setting": "[9]; [17]", "result": 13.8, "unit": "pg/mg"}]}
{"compound": "NGF: nerve growth factor added to culture media", "values": [{"measurement": "Proliferative Effect on Nerve Cell", "setting": "PC12 nerve cells; 2 ng/ml", "result": "112 % of control"}, {"measurement": "Proliferative Effect on Nerve Cell", "setting": "PC12 nerve cells; 50 ng/ml", "result": "118 % of control"}, {"measurement": "Relative Amount of Phosphorylated NGF", "setting": "TrkA (NGF receptor); NGF 2 ng/ml alone", "result": "241 % of control"}, {"measurement": "Relative Amount of Phosphorylated NGF", "setting": "TrkA (NGF receptor); NGF 50 ng/ml alone", "result": "337 % of control"}, {"measurement": "Neurite Area of DRG Nerve Cell", "setting": "[10]; NGF 2 ng/ml alone", "result": 235, "unit": "μm^2"}, {"measurement": "Neurite Area of DRG Nerve Cell", "setting": "[10]; NGF 50 ng/ml alone", "result": 461, "unit": "μm^2"}]}
